The values that follow come from patent US12083084B2, “Method for enhancing energy production and metabolism in cells” (REPLICON HEALTH OY, priority 2013, dated 2024).

“Also recorded” adds a separate entry of the source.

Series [1] concerns primary human hepatocytes. Briefly: Cellular ROS detection (DCFDA) in primary human hepatocytes. Format: cell-based. To be noted: for ROS production compared to 0 dose/control: donor four, High Medium, FIG. 5; for ROS compared to 0 dose/control (in words): moderate metabolic stress (1.5-2 h after change of medium). The protocol:
(§1) Primary human hepatocytes were purchased from Celsis In Vitro Technologies (1450 South Rolling Road Baltimore, MD 21227, USA). […] According to the information provided by the Celsis, hepatocytes from each donor should have at least 70% viability and more than 5 million viable cells. The medium for the culture of hepatocytes was provided by Celsis. They were InVitroGRO CP (for plating) medium (Z99029) and InVitroGRO HI (for incubation) medium (Z99009). Antibiotics (Torpedo Antibiotics Mix, Z990007) were also from Celsis. The thaw, plating and culture of cells were carried out according to the instruction provided by the Celsis In Vitro Technologies.
(§2) For the measurement of cell viability after treatment of test compound, CytoTox-One Homogeneous Membrane Integrity Assay kit (Promega, G7891) was used. The CytoTox-One Assay is a rapid fluorescent measure of the release of lactate dehydrogenase (LDH) from cells with a damaged membrane. The number of […] cells correlates to the fluorescence intensity determined by a fluorescence plate reader (Hidex Chameleon V multiplate reader, Hidex Oy, Turku, Finland) with excitation 544 nm and emission 590 nm. For the measurement of cellular reactive oxygen species (ROS), DCFDA Cellular ROS Detection Assay Kit from Abcam (ab113851) was used. Reactive oxygen species (ROS) assay kit (ab113851) uses the cell permeant reagent 2′,7′-dichlorofluorescein diacetate (DCFDA), a fluorogenic dye that measures hydroxyl, peroxyl and other ROS activity with the cell. The activity of ROS was measured by a fluorescence plate reader (Hidex) with excitation/emission wavelengths of 485 nm/535 nm.
(§3) The culture of primary hepatocytes was carried out based on the instructions provided by Celsis. After thawing, the cells were suspended in InVitroGRO CP medium. Thereafter the viability of cells was determined using the Trypan Blue exclusion method. Then the concentration of cells was adjusted using InVitroGRO CP medium, so about 30000-35000 cells/100 μl/well can be seeded in collagen I coated 96 well plate (BD, 734-0248).
(§4) After seeding, the cells were cultured overnight in the cell culture incubator (Sanyo MCO 18) at atmosphere of 95% air, 5% CO2 at 37° C. Thereafter, the culture medium for the cells was changed to InVitroGRO Hi (Hi Medium) containing test compound (D-glyceric acid calcium salt dehydrate) at the concentrations of 0, 0.2, 2 and 20 μg/ml (study 1, Table 1.1.1) and 0, 0.4, 2 and 10 μg/ml (study 2, Table 1.1.2).
In study 3 also LGA and HPA were tested and compared to DGA (see FIGS. 11c and 11d) with same doses as in study 2.
In studies 2-4 additional diet with 0.75 mM of palmitic acid (“fatty acid diet”) was added to Hi Medium. Hi Medium in itself contains ample amounts of glucose and fructose and other necessary ingredients for keeping viability of the cell culture at optimal level.
(§5) After 24 h (in study 1) and 20 h (in studies 2-4) incubation medium was renewed. Second renewal of the incubation medium occurred at 48 h in study 1 and at 40 h in other studies. ROS and LDH were measured after 1.5-2 hours after last change of the medium, i.e. in a situation with moderate metabolic stress.
The measurement of cellular reactive oxygen species (ROS) was carried out according to the instruction of Abcam (ab113851). At the end of treatment time point, culture medium was taken away for leaked LDH measurement and cells were washed with 100 μl/well PBS once. Thereafter 100 μl/well of DCDA mix was added and incubated for 45 min at 37° C. in the dark. Then cells were washed once with 1× buffer solution. The fluorescence signal was measured at an excitation wavelength of 485 nm and emission wavelength of 535 nm using the Hidex Chameleon V multiplate reader (Hidex Oy, Turku, Finland).
For the LDH and ROS assays, individual values of each measurement were stored and average value of fluorescence signals of various repeats of each treatment at studied time point were calculated and compared. […]

For series [2] the following is noted: cited from earlier work.
Series [3] concerns ethanol-dosed gastric cells. The note with it: in vitro; cited from earlier work.
The test system of series [4] is primary human hepatocytes. As to the kind of experiment: Cell viability by LDH release (CytoTox-One) in primary human hepatocytes. The format is cell-based. The protocol:
as §1, §2, §3, §4, §5
The measurement of LDH from medium (leaked LDH) and from cell and medium (total LDH) was carried out according to the instruction provided by the Promega (G7891). The plate was incubated at an incubator to achieve a temperature of 22° C. Thereafter, equal volume of CytoTox-ONE Reagent to cell culture medium (100 μl) was added to each well and mix for 30 seconds. Then they were incubated for 10 min at 22° C., and then 50 μl of Stop Solution was added to each well. After gentle mixing, the fluorescence signal was measured at an excitation wavelength of 560 nm and emission wavelength of 590 nm using the Hidex Chameleon V multiplate reader (Hidex Oy, Turku, Finland).
For the total LDH measurement, all the steps are same except a 2 μl of Lysis Solution (per 100 μl original volume) will be added to the each well to lyse the cells before CytoTox-ONE Reagents will be added.
For the LDH and ROS assays, individual values of each measurement were stored and average value of fluorescence signals of various repeats of each treatment at studied time point were calculated and compared. […] Viability (LDH) measurements contained 4-6 repeats depending on the study. […]

For `O=C(O)[C@H](O)CO` [DGA, D-glyceric acid], the “ROS production compared to 0 dose/control” value in series [1] (1.5 h after new medium (moderate metabolic stress), 1.4 μM) was “Significant efficacy”; in series [1] (1.5 h after new medium, 0.14 μM) it was “no effect”; in series [1] (1.5 h after new medium, 14 μM (2 μg/ml)) it was “Biggest ROS scavenging effect”. In addition, the “decline of ROS compared to control” value in series [1] (donor one, Hi Medium+Palmitic acid, FIG. 11a) was “same decline”. For the same molecule, the “amount of ROSs decreased by” value in series [1] (primary human hepatocytes, metabolic stress situation) was 15-40%. For the same molecule, the “ROS compared to 0 dose/control (in words)” value in series [1] (primary human hepatocytes) is “decreases ROS”. In addition, the “ROS scavenging in equimolar comparison against vitamin E, glutathione, vitamin C (and morin dehydrate)” value in series [1] (study 4, donors alpha (FIG. 5) and (FIG. 6), 14 μM) is given as “superior or at least as good ROS scavenger; also recorded: superior antioxidant”. In series [2], the solubility entry was “readily soluble in water and alcohol”. Further, the “viability of ethanol-dosed gastric cells” value in series [3] is “increase viability”. The “viability compared to 0 dose” value in series [4] (donor alpha, 0.4 DGA dose, Hi Medium+palmitic acid, FIG. 10c) was “statistically significant decrease in viability; also recorded: decline is statistically significant”. In addition, the “hepatocytes viability increased in some cases by” value in series [4] (donor alpha, FIG. 10c) was 40-60%. In addition, the “viability of cells increased on average by” value in series [4] (primary human hepatocytes) is on record as 5-10%.
Turning to `O.O.O=C([O-])[C@H](O)CO.O=C([O-])[C@H](O)CO.[Ca+2]` [DGAcs, D-glyceric acid, calcium salt dehydrate], the “ROS compared to 0 dose/control (in words)” value in series [1] (primary human hepatocytes) is given as “decrease ROS levels significantly; also recorded: reduced ROS”. The “viability compared to 0 dose (in words)” value in series [4] (primary human hepatocytes, standard treatment, moderate metabolic stress) was “modestly increase the viability”.
